In this assay the test system is HBV. Briefly: HBV-DNA Antiviral Assay Using HepG2.2.15 Cells (extracellular HBV DNA by qPCR). Format: cell-based, hepatitis B virus (HBV). Particulars: Hepatitis B virus; HBV DNA inhibition, HepG2.2.15 cells, extracellular HBV DNA by qPCR; read-out: EC50. The procedure, abridged: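 HepG2.2.15 cells were treated on day 1 with 8 concentrations (4-fold dilutions, duplicate; 0.5% DMSO), with compound-containing medium refreshed on day 4, at 37 °C. On day 7, supernatant HBV DNA was measured by qPCR against a plasmid standard curve, with inhibition normalised between DMSO and ETV controls. EC50/EC90 and CC50 (CellTiter-Glo ATP) came from variable-slope fits.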

For `C=C[C@@](C)(NC(=O)C(=O)c1c(C)c(C(=O)Nc2ccc(F)c(C#N)c2)n(C)c1C)C(F)(F)F` [Compound 95a, N-(3-cyano-4-fluoro-phenyl)-1,3,5-trimethyl-4-[2-oxo-2-[[(1R)-1-methyl-1-(trifluoromethyl)allyl]amino]acetyl]pyrrole-2-carboxamide], the EC50 lay in the range of 1 to 10 nM.

On to `C=C[C@](C)(NC(=O)C(=O)c1c(C)c(C(=O)Nc2ccc(F)c(C#N)c2)n(C)c1C)C(F)(F)F` [Compound 95b, N-(3-cyano-4-fluoro-phenyl)-1,3,5-trimethyl-4-[2-oxo-2-[[(1S)-1-methyl-1-(trifluoromethyl)allyl]amino]acetyl]pyrrole-2-carboxamide], for which the EC50 was 1 to 10 nM.

With `Cc1c(C(=O)C(=O)NC(C)(C)c2cn[nH]c2)c(C)n(C)c1C(=O)Nc1ccc(F)c(C#N)c1` [Compound 96, N-(3-cyano-4-fluoro-phenyl)-1,3,5-trimethyl-4-[2-[[1-methyl-1-(1H-pyrazol-4-yl)ethyl]amino]-2-oxo-acetyl]pyrrole-2-carboxamide], the 50% effective concentration (EC50) is 1 to 10 nM.

Turning to `Cc1c(C(=O)C(=O)NC(C)(C)c2cn[nH]c2)c(C)n(C)c1C(=O)Nc1ccc(F)c(C(F)(F)F)c1` [Compound 97, N-[4-fluoro-3-(trifluoromethyl)phenyl]-1,3,5-trimethyl-4-[2-[[1-methyl-1-(1H-pyrazol-4-yl)ethyl]amino]-2-oxo-acetyl]pyrrole-2-carboxamide], the EC50 was less than 1 nM.

Regarding `Cc1c(C(=O)C(=O)NC(C)(C)c2cnn(C)c2)c(C)n(C)c1C(=O)Nc1ccc(F)c(C(F)(F)F)c1` [Compound 98, N-[4-fluoro-3-(trifluoromethyl)phenyl]-1,3,5-trimethyl-4-[2-[[1-methyl-1-(1-methylpyrazol-4-yl)ethyl]amino]-2-oxo-acetyl]pyrrole-2-carboxamide], the EC50 is less than 1 nM.

Regarding `Cc1c(C(=O)C(=O)NC(C)(C)c2ccccn2)c(C)n(C)c1C(=O)Nc1ccc(F)c(C(F)(F)F)c1` [Compound 99, N-[4-fluoro-3-(trifluoromethyl)phenyl]-1,3,5-trimethyl-4-[2-[[1-methyl-1-(2-pyridyl)ethyl]amino]-2-oxo-acetyl]pyrrole-2-carboxamide], the EC50 lay within 1 to 10 nM.

On to `Cc1c(C(=O)C(=O)NC(C)(C)c2cccnc2)c(C)n(C)c1C(=O)Nc1ccc(F)c(C(F)(F)F)c1` [Compound 100, N-[4-fluoro-3-(trifluoromethyl)phenyl]-1,3,5-trimethyl-4-[2-[[1-methyl-1-(3-pyridyl)ethyl]amino]-2-oxo-acetyl]pyrrole-2-carboxamide], for which the EC50 is less than 1 nM.

Regarding `Cc1c(C(=O)C(=O)NC(C)(C)c2ccncc2)c(C)n(C)c1C(=O)Nc1ccc(F)c(C(F)(F)F)c1` [Compound 101, N-[4-fluoro-3-(trifluoromethyl)phenyl]-1,3,5-trimethyl-4-[2-[[1-methyl-1-(4-pyridyl)ethyl]amino]-2-oxo-acetyl]pyrrole-2-carboxamide], the EC50 is 1 to 10 nM.

For the compound `Cc1c(C(=O)C(=O)NC2(C#CC3(O)CC3)COC2)c(C)n(C)c1C(=O)Nc1ccc(F)c(C#N)c1` [Compound 102, N-(3-cyano-4-fluoro-phenyl)-4-[2-[[3-[2-(1-hydroxycyclopropyl)ethynyl]oxetan-3-yl]amino]-2-oxo-acetyl]-1,3,5-trimethyl-pyrrole-2-carboxamide], the EC50 fell in the range of 1 to 10 nM.

Take `Cc1c(C(=O)C(=O)NC(C)(C)c2nccs2)c(C)n(C)c1C(=O)Nc1ccc(F)c(C(F)(F)F)c1` [Compound 103, N-[4-fluoro-3-(trifluoromethyl)phenyl]-1,3,5-trimethyl-4-[2-[(1-methyl-1-thiazol-2-yl-ethyl)amino]-2-oxo-acetyl]pyrrole-2-carboxamide]: the EC50 is 1 to 10 nM.

For `Cc1c(C(=O)C(=O)NC(C)(C)c2c[nH]cn2)c(C)n(C)c1C(=O)Nc1ccc(F)c(C#N)c1` [Compound 104, N-(3-cyano-4-fluoro-phenyl)-4-[2-[[1-(1H-imidazol-4-yl)-1-methyl-ethyl]amino]-2-oxo-acetyl]-1,3,5-trimethyl-pyrrole-2-carboxamide], the EC50 is 1 to 10 nM.

Take `C#CC1(N(COC(=O)[C@@H](N)C(C)C)C(=O)C(=O)c2c(C)c(C(=O)Nc3ccc(F)c(C#N)c3)n(C)c2C)COC1` [Compound 105, [[2-[5-[(3-cyano-4-fluoro-phenyl)carbamoyl]-1,2,4-trimethyl-pyrrol-3-yl]-2-oxo-acetyl]-(3-ethynyloxetan-3-yl)amino]methyl-(2S)-2-amino-3-methyl-butanoate]: the EC50 lay within 1 to 10 nM.

As for `Cc1c(C(=O)C(=O)NC(C)(C)c2c[nH]cn2)c(C)n(C)c1C(=O)Nc1ccc(F)c(C(F)(F)F)c1` [Compound 106, N-[4-fluoro-3-(trifluoromethyl)phenyl]-4-[2-[[1-(1H-imidazol-4-yl)-1-methyl-ethyl]amino]-2-oxo-acetyl]-1,3,5-trimethyl-pyrrole-2-carboxamide], the EC50 lay within 1 to 10 nM.

In the case of `C#CC1(NC(=O)C(=O)c2c(C)c(C(=O)Nc3ccc(F)c(C#N)c3)n(C)c2C)CCOCC1` [Compound 107, N-(3-cyano-4-fluoro-phenyl)-4-[2-[(4-ethynyltetrahydropyran-4-yl)amino]-2-oxo-acetyl]-1,3,5-trimethyl-pyrrole-2-carboxamide], the EC50 lay in the range of 1 to 10 nM.

Take `C#CC1(NC(=O)C(=O)c2c(C)c(C(=O)Nc3ccc(F)c(C#N)c3)n(C)c2C)CCS(=O)(=O)CC1` [Compound 108, N-(3-cyano-4-fluoro-phenyl)-4-[2-[(4-ethynyl-1,1-dioxo-thian-4-y1)amino]-2-oxo-acetyl]-1,3,5-trimethyl-pyrrole-2-carboxamide]: the EC50 was 1 to 10 nM.

As for `C#CC1(NC(=O)C(=O)c2c(C)c(C(=O)Nc3ccc(F)c(C#N)c3)n(C)c2C)CCCC1` [Compound 109, N-(3-cyano-4-fluoro-phenyl)-4-[2-[(1-ethynylcyclopentyl)amino]-2-oxo-acetyl]-1,3,5-trimethyl-pyrrole-2-carboxamide], the EC50 lay in the range of 1 to 10 nM.

Consider `Cc1c(C(=O)C(=O)NC(C)(C)c2ncc[nH]2)c(C)n(C)c1C(=O)Nc1ccc(F)c(C#N)c1` [Compound 131, N-(3-cyano-4-fluoro-phenyl)-4-[2-[[1-(1H-imidazol-2-yl)-1-methyl-ethyl]amino]-2-oxo-acetyl]-1,3,5-trimethyl-pyrrole-2-carboxamide], for which the EC50 is 1 to 10 nM.

`Cc1c(C(=O)C(=O)NC(C)(C)c2ncc[nH]2)c(C)n(C)c1C(=O)Nc1ccc(F)c(C(F)(F)F)c1` [Compound 132, N-[4-fluoro-3-(trifluoromethyl)phenyl]-4-[2-[[1-(1H-imidazol-2-yl)-1-methyl-ethyl]amino]-2-oxo-acetyl]-1,3,5-trimethyl-pyrrole-2-carboxamide]: the EC50 fell in the range of 1 to 10 nM.

As to `C#CC1(NC(=O)C(=O)c2c(C)c(C(=O)Nc3ccc(Cl)c(Br)c3)n(C)c2C)CC(F)(F)C1` [Compound 133, N-(3-bromo-4-chloro-phenyl)-4-[2-[(1-ethynyl-3,3-difluoro-cyclobutyl)amino]-2-oxo-acetyl]-1,3,5-trimethyl-pyrrole-2-carboxamide], the EC50 was in the range of 1 to 10 nM.

`C#CC1(NC(=O)C(=O)c2c(C)c(C(=O)Nc3ccc(Br)c(Cl)c3)n(C)c2C)CC(F)(F)C1` [Compound 134, N-(4-bromo-3-chloro-phenyl)-4-[2-[(1-ethynyl-3,3-difluoro-cyclobutyl)amino]-2-oxo-acetyl]-1,3,5-trimethyl-pyrrole-2-carboxamide]: the EC50 was in the range of 1 to 10 nM.
